“And” between values parts separate entries of the source, which are not always exact repeats. Identical values can stand only once.
System: Swiss mice, Sarcoma 180 sc, mean tumor weight T/C
Test: NCI In Vivo Anticancer Drug Screen. Data for tumor model Sarcoma 180 (subcutaneous) in Swiss mice
Conditions: endpoint: mean tumor weight, higher = larger tumour
Protocol: The antitumor activity of compounds was measured in mice bearing transplantable tumors. Survival or tumor size were measured and the results are expressed as the measurement made in the treated group (T) divided by the measurement made in the vehicle treated control group (C). The tumor model used in this assay is Sarcoma 180 (subcutaneous) in Swiss mice

SMILES: C[C@]12CC[C@H](O)CC1=CC[C@@H]1[C@@H]2CC[C@]2(C)c3nc4ccccc4cc3C[C@@H]12
- T/C (dose: 15.6 mg/kg/injection, schedule: Q01DX007 (sc), vehicle: saline): 93 % of control
- T/C (dose: 62.5 mg/kg/injection, schedule: Q01DX007 (sc), vehicle: saline): 57 % of control
- T/C (dose: 125.0 mg/kg/injection, schedule: Q01DX007 (sc), vehicle: saline): 95 % of control
- T/C (dose: 250.0 mg/kg/injection, schedule: Q01DX007 (sc), vehicle: saline): 66 % of control
- T/C (dose: 500.0 mg/kg/injection, schedule: Q01DX007 (sc), vehicle: saline): 93 % of control

SMILES: NNc1nnc(NN)c2ccccc12
- T/C (dose: 31.25 mg/kg/injection, schedule: Q01DX007 (ip), vehicle: saline): 167 % of control
- T/C (dose: 62.5 mg/kg/injection, schedule: Q01DX007 (ip), vehicle: saline): 176 % of control
- T/C (dose: 125.0 mg/kg/injection, schedule: Q01DX007 (ip), vehicle: saline): 119 % of control

SMILES: CN1CCC=C(C(=O)O)C1
- T/C (dose: 10.0 mg/kg/injection, schedule: Q01DX007 (ip), vehicle: water): 78 % of control
- T/C (dose: 50.0 mg/kg/injection, schedule: Q01DX007 (ip), vehicle: water): 75 % of control
- T/C (dose: 100.0 mg/kg/injection, schedule: Q01DX007 (ip), vehicle: water): 83 % of control

SMILES: CSc1ncnc2c1ncn2C1OC(CO)C(O)C1O (configuration not stated)
- T/C (dose: 12.5 mg/kg/injection, schedule: Q01DX007 (ip), vehicle: saline): 72 % of control
- T/C (dose: 15.0 mg/kg/injection, schedule: Q01DX007 (ip), vehicle: saline): 88 % of control
- T/C (dose: 17.5 mg/kg/injection, schedule: Q01DX007 (ip), vehicle: saline): 94 % of control
- T/C (dose: 20.0 mg/kg/injection, schedule: Q01DX007 (ip), vehicle: saline): 73 % of control

SMILES: Cn1c(=O)c2[nH]cnc2n(C)c1=O
- T/C (dose: 20.43 mg/kg/injection, schedule: Q01DX007 (ip), vehicle: carboxymethylcellulose (CMC)): 75 % of control
- T/C (dose: 40.87 mg/kg/injection, schedule: Q01DX007 (ip), vehicle: carboxymethylcellulose (CMC)): 103 % of control
- T/C (dose: 81.75 mg/kg/injection, schedule: Q01DX007 (ip), vehicle: carboxymethylcellulose (CMC)): 70 % of control
- T/C (dose: 163.5 mg/kg/injection, schedule: Q01DX007 (ip), vehicle: carboxymethylcellulose (CMC)): 113 % of control

SMILES: C[C@H]1/C(=C/C(=O)OCCN(C)C)CC[C@H]2[C@H]1C(=O)C[C@H]1C(C)(C)[C@@H](O)CC[C@]21C
- T/C (dose: 1.88 mg/kg/injection, schedule: Q01DX007 (ip), vehicle: saline): 60 % of control
- T/C (dose: 3.75 mg/kg/injection, schedule: Q01DX007 (ip), vehicle: saline): 64 % of control
- T/C (dose: 7.5 mg/kg/injection, schedule: Q01DX007 (ip), vehicle: saline): 75 % of control

SMILES: NNC(=O)c1nsnc1N
- T/C (dose: 75.0 mg/kg/injection, schedule: Q01DX007 (ip), vehicle: carboxymethylcellulose (CMC)): 97 % of control

SMILES: S=P(N1CCCCCC1)(N1CC1)N1CC1
- T/C (dose: 6.0 mg/kg/injection, schedule: Q01DX007 (ip), vehicle: carboxymethylcellulose (CMC)): 90 % of control
- T/C (dose: 6.5 mg/kg/injection, schedule: Q#A X014 (ip), vehicle: methylcellulose (MC)): 52 % of control
- T/C (dose: 9.0 mg/kg/injection, schedule: Q01DX007 (ip), vehicle: carboxymethylcellulose (CMC)): 60 % of control
- T/C (dose: 10.0 mg/kg/injection, schedule: Q#A X014 (ip), vehicle: methylcellulose (MC)): 60 % of control
- T/C (dose: 13.0 mg/kg/injection, schedule: Q01DX007 (ip), vehicle: carboxymethylcellulose (CMC)): 74 % of control
- T/C (dose: 15.0 mg/kg/injection, schedule: Q#A X014 (ip), vehicle: methylcellulose (MC)): 53 % of control
- T/C (dose: 20.0 mg/kg/injection, schedule: Q01DX007 (ip), vehicle: carboxymethylcellulose (CMC)): 62 % of control
- T/C (dose: 22.5 mg/kg/injection, schedule: Q#A X014 (ip), vehicle: methylcellulose (MC)): 23 % of control
- T/C (dose: 29.0 mg/kg/injection, schedule: Q01DX007 (ip), vehicle: carboxymethylcellulose (CMC)): 89 % of control
- T/C (dose: 45.0 mg/kg/injection, schedule: Q01DX007 (ip), vehicle: carboxymethylcellulose (CMC)): 57 % of control
- T/C (dose: 45.0 mg/kg/injection, schedule: Q01DX007 (ip), vehicle: saline): 25 % of control
- T/C (dose: 67.0 mg/kg/injection, schedule: Q01DX007 (ip), vehicle: carboxymethylcellulose (CMC)): 38 % of control
- T/C (dose: 90.0 mg/kg/injection, schedule: Q01DX007 (ip), vehicle: saline): 12 % of control

SMILES: CCCN(C)/N=N/c1nc[nH]c1C(N)=O
- T/C (dose: 31.0 mg/kg/injection, schedule: Q01DX007 (ip), vehicle: carboxymethylcellulose (CMC)): 55 % of control
- T/C (dose: 46.0 mg/kg/injection, schedule: Q01DX007 (ip), vehicle: carboxymethylcellulose (CMC)): 37 % of control
- T/C (dose: 62.0 mg/kg/injection, schedule: Q01DX007 (ip), vehicle: carboxymethylcellulose (CMC)): 34 % of control

SMILES: C=CCOc1ccc2c(c1)CC[C@@H]1[C@@H]2CC[C@]2(C)[C@@H](O)[C@@H](O)C[C@@H]12
- T/C (dose: 0.25 mg/kg/injection, schedule: Q#A X014 (sc), vehicle: steriod suspending solution): 90 % of control
- T/C (dose: 0.5 mg/kg/injection, schedule: Q01DX007 (sc), vehicle: steriod suspending solution): 106 % of control
- T/C (dose: 1.25 mg/kg/injection, schedule: Q01DX007 (sc), vehicle: steriod suspending solution): 77 % of control
- T/C (dose: 1.25 mg/kg/injection, schedule: Q#A X014 (sc), vehicle: steriod suspending solution): 68 % of control
- T/C (dose: 2.5 mg/kg/injection, schedule: Q01DX007 (sc), vehicle: steriod suspending solution): 91 % of control
- T/C (dose: 2.5 mg/kg/injection, schedule: Q#A X014 (ip), vehicle: methylcellulose (MC)): 84 % of control
- T/C (dose: 2.5 mg/kg/injection, schedule: Q#A X014 (sc), vehicle: steriod suspending solution): 36 % of control
- T/C (dose: 10.0 mg/kg/injection, schedule: Q#A X014 (sc), vehicle: steriod suspending solution): 60 % of control

SMILES: C[C@]12CC[C@H](O)C[C@H]1CC[C@@H]1[C@@H]2CC[C@]2(C)[C@@H](C3=CC(=O)OC3)CC[C@]12O
- T/C (dose: 5.0 mg/kg/injection, schedule: Q01DX007 (ip), vehicle: carboxymethylcellulose (CMC)): 79 % of control
- T/C (dose: 10.0 mg/kg/injection, schedule: Q01DX007 (ip), vehicle: carboxymethylcellulose (CMC)): 68 % of control
- T/C (dose: 25.0 mg/kg/injection, schedule: Q01DX007 (ip), vehicle: carboxymethylcellulose (CMC)): 86 % of control

SMILES: CS(=O)(=O)OCCCCCOS(C)(=O)=O
- T/C (dose: 16.5 mg/kg/injection, schedule: Q#A X014 (ip), vehicle: methylcellulose (MC)): 54 % of control and 65 % of control
- T/C (dose: 37.5 mg/kg/injection, schedule: Q#A X014 (ip), vehicle: methylcellulose (MC)): 54 % of control
- T/C (dose: 56.5 mg/kg/injection, schedule: Q#A X014 (ip), vehicle: methylcellulose (MC)): 9 % of control

SMILES: O=C1Nc2ccccc2/C1=C/c1cccnc1
- T/C (dose: 62.5 mg/kg/injection, schedule: Q01DX007 (ip), vehicle: carboxymethylcellulose (CMC)): 100 % of control
- T/C (dose: 125.0 mg/kg/injection, schedule: Q01DX007 (ip), vehicle: carboxymethylcellulose (CMC)): 79 % of control
- T/C (dose: 250.0 mg/kg/injection, schedule: Q01DX007 (ip), vehicle: carboxymethylcellulose (CMC)): 43 % of control

SMILES: CN(CC#N)/N=N/c1nc[nH]c1C(N)=O
- T/C (dose: 225.0 mg/kg/injection, schedule: Q01DX007 (ip), vehicle: carboxymethylcellulose (CMC)): 38 % of control

— PubChem BioAssay AID342 (DTP/NCI, 2004)
